Reference: US8927500B2, “Peptidomimetic macrocycles” (Aileron Therapeutics, Inc., priority 2012, dated 2015)
pIC50, pKi: −log10 of the molar value. Where a SMILES comes first, the peptide text is derived from it. Bridges are numbered along the chain shown (N, C = ends). [ ]: non-standard residue; d: D form. Phe(4-COOH) = N[C@@H](Cc1ccc(C(=O)O)cc1)C(=O)O; R8 = C=CCCCCCC[C@@](C)(N)C(=O)O; Cba = N[C@@H](CC1CCC1)C(=O)O; S5 = C=CCCC[C@](C)(N)C(=O)O; Nle = CCCC[C@H](N)C(=O)O

Key:
SJSA-1 cells = test: Cell lysis by peptidomimetic macrocycles (LDH release); type: cell-based; conditions: 1 h at 37C
Caspase 3 = Caspase 3 detection assay in SJSA1 cells; type: cell-based; conditions: 48 h, Caspase 3 activation over DMSO-treated cells; for caspase 0.3 uM: 0.3 uM peptide; for caspase 3 uM: 3 uM peptide; for caspase 10 uM: 10 uM peptide; for caspase 30 uM: 30 uM peptide; for caspase 1 uM: 1 uM peptide
[1] = Circular dichroism (CD) analysis of alpha-helicity; type: physicochemical; conditions: for Molar Ellipticity 50% TFE (222 in 50% TFE): CD buffer with 50% TFE; for Molar Ellipticity 50% TFE (222 in 50% TFE) / Molar Ellipticity Benign (222 in 0% TFE): 222 nm, 4° C.; for Molar Ellipticity Benign (222 in 0% TFE): benign CD buffer pH 2, 0% TFE; for % Helix benign compared to 50% TFE parent (CD): benign buffer; for Molar Ellipticity TFE-Molar Ellipticity Benign: difference 50% TFE minus benign
Procedure: To assay the helicity of peptidomimetic macrocycles, the compounds are dissolved in an aqueous solution (e.g. 50 mM potassium phosphate solution at pH 7, or distilled H2O, to concentrations of 25-50 μM). Circular dichroism (CD) spectra are obtained on a spectropolarimeter (e.g., Jasco J-710) using standard measurement parameters (e.g. temperature, 20° C.; wavelength, 190-260 nm; step resolution, 0.5 nm; speed, 20 nm/sec; accumulations, 10; response, 1 sec; bandwidth, 1 nm; path length, 0.1 cm). […] A Peltier temperature controller was used to maintain temperature control of the optical cell. Results are expressed as mean molar ellipticity [0] […] Peptide concentrations were determined by amino acid analysis. Stock solutions of peptides were prepared in benign CD buffer (20 mM phosphoric acid, pH 2). The stocks were used to prepare peptide solutions of 0.05 mg/ml in either benign CD buffer or CD buffer with 50% trifluoroethanol (TFE) for analyses in a 10 mm pathlength cell. […] The average of six scans was reported.

MDMX = target: T1, MDMX (Homo sapiens, UniProt O15151); test: Competitive fluorescence polarization assay for MDMX; type: binding; conditions: competitive FP assay; for pIC50: read-out: IC50 (MDMX); for pKi: read-out: Ki (MDMX)
T1 sequence (O15151 1-125): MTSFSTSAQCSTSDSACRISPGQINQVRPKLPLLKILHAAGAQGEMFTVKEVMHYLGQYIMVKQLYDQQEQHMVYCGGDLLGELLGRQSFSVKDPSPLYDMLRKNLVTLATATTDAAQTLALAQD

MDM2 = MDM2 (Homo sapiens, UniProt Q00987); test: Competitive fluorescence polarization assay for MDM2; type: binding; conditions: competitive FP assay, MDM2; for pIC50: read-out: IC50 (MDM2); for pKi: read-out: Ki (MDM2)
Sequence of MDM2 (Q00987 1-125): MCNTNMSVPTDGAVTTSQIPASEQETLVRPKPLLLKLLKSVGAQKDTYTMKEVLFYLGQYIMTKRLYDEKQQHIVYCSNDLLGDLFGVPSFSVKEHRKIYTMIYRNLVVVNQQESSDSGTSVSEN

CC(=O)N[C@@H](CC(C)C)C(=O)N[C@H](C(=O)N[C@@H](Cc1ccccc1)C(=O)N[C@]1(C)CCCCCCC=CCCC[C@@](C)(C(=O)N[C@@H](CO)C(=O)N[C@@H](C)C(=O)N[C@@H](C)C(N)=O)NC(=O)[C@H](CC(C)C)NC(=O)[C@H](CCC(N)=O)NC(=O)[C@H](C)NC(=O)[C@H](Cc2c[nH]c3ccccc23)NC(=O)[C@H](Cc2ccc(O)cc2)NC(=O)[C@H](C)NC1=O)[C@@H](C)O [compound 11]
6.25 uM % Lysed cells (1 h LDH) (SJSA-1 cells): −2%
25 uM % Lysed cells (1 h LDH) (SJSA-1 cells): 2%
50 uM % Lysed cells (1 h LDH) (SJSA-1 cells): 3%
caspase 0.3 uM (Caspase 3): 1
caspase 3 uM (Caspase 3): 5
caspase 10 uM (Caspase 3): 23
caspase 30 uM (Caspase 3): 33.5
% Helix 50% TFE compared to 50% TFE parent (CD) [1]: 106.1%
Molar Ellipticity 50% TFE (222 in 50% TFE) [1]: −16623.4 deg cm2 dmol-1
Molar Ellipticity Benign (222 in 0% TFE) [1]: −398.2 deg cm2 dmol-1
% Helix benign compared to 50% TFE parent (CD) [1]: 2.5%

CCCC[C@H](NC(=O)[C@H](CCC(N)=O)NC(=O)[C@H](CCC(N)=O)NC(=O)[C@]1(C)CCCC=CCCCCCC[C@@](C)(NC(=O)[C@H](Cc2ccccc2)NC(C)=O)C(=O)N[C@@H](C)C(=O)N[C@@H](Cc2ccc(O)cc2)C(=O)N[C@@H](Cc2c[nH]c3ccccc23)C(=O)N[C@@H]([C@@H](C)O)C(=O)N[C@@H](C)C(=O)N[C@@H](CC(C)C)C(=O)N1)C(=O)N[C@@H](C(N)=O)C(C)C [compound 41] (Ac-F[R8]AYWTAL[S5]QQ[Nle][dV]-NH2; staple 2-9)
pIC50 (MDMX): 7.00 to 8.00
pKi (MDMX): 7.00 to 8.00
pIC50 (MDM2): 6.00 to 7.00
pKi (MDM2): 7.00 to 8.00
% Helix 50% TFE compared to 50% TFE parent (CD) [1]: 136%
Molar Ellipticity 50% TFE (222 in 50% TFE) [1]: −21319.4 deg cm2 dmol-1
Molar Ellipticity Benign (222 in 0% TFE) [1]: −909 deg cm2 dmol-1
% Helix benign compared to 50% TFE parent (CD) [1]: 5.8%
Molar Ellipticity TFE-Molar Ellipticity Benign [1]: 20410.4 deg cm2 dmol-1

CC(=O)N[C@@H](CC(C)C)C(=O)N[C@H](C(=O)N[C@@H](Cc1ccccc1)C(=O)N[C@]1(C)CCCCCCC=CCCC[C@@](C)(C(=O)N[C@@H](Cc2c[nH]cn2)C(=O)N[C@@H](Cc2c[nH]cn2)C(=O)N[C@@H](CC(C)C)C(=O)N[C@H](C)C(N)=O)NC(=O)[C@H](CC(C)C)NC(=O)[C@H](CCC(N)=O)NC(=O)[C@H](C)NC(=O)[C@H](Cc2c[nH]c3ccccc23)NC(=O)[C@H](Cc2ccc(O)cc2)NC(=O)[C@H](C)NC1=O)[C@@H](C)O [compound 43] (Ac-LTF[R8]AYWAQL[S5]HHL[dA]-NH2; staple 4-11)
pIC50 (MDMX): 7.00 to 8.00
pKi (MDMX): 7.00 to 8.00
pIC50 (MDM2): 7.00 to 8.00
pKi (MDM2): > 8.00
6.25 uM % Lysed cells (1 h LDH) (SJSA-1 cells): 0%
25 uM % Lysed cells (1 h LDH) (SJSA-1 cells): −1%
50 uM % Lysed cells (1 h LDH) (SJSA-1 cells): −1%
% Helix 50% TFE compared to 50% TFE parent (CD) [1]: 116.4%
Molar Ellipticity 50% TFE (222 in 50% TFE) [1]: −18247.4 deg cm2 dmol-1
Molar Ellipticity Benign (222 in 0% TFE) [1]: −15334.5 deg cm2 dmol-1
% Helix benign compared to 50% TFE parent (CD) [1]: 97.8%
Molar Ellipticity TFE-Molar Ellipticity Benign [1]: 2912.9 deg cm2 dmol-1

CCCC[C@H](NC(=O)[C@H](C)NC(=O)[C@H](CO)NC(=O)[C@]1(C)CCCC=CCCCCCC[C@@](C)(NC(=O)[C@H](Cc2ccccc2)NC(=O)[C@@H](NC(=O)[C@H](CC(C)C)NC(C)=O)[C@@H](C)O)C(=O)N[C@@H](CCC(=O)O)C(=O)N[C@@H](Cc2ccc(O)cc2)C(=O)N[C@@H](Cc2c[nH]c3ccccc23)C(=O)N[C@@H](CO)C(=O)N[C@@H](CCC(N)=O)C(=O)N[C@@H](CC2CCC2)C(=O)N1)C(=O)N[C@@H](C)C(N)=O [compound 245] (Ac-LTF[R8]EYWSQ[Cba][S5]SA[Nle]A-NH2; staple 4-11)
pIC50 (MDMX): 7.00 to 8.00
pKi (MDMX): 7.00 to 8.00
pIC50 (MDM2): 7.00 to 8.00
pKi (MDM2): > 8.00
6.25 uM % Lysed cells (1 h LDH) (SJSA-1 cells): 1%
25 uM % Lysed cells (1 h LDH) (SJSA-1 cells): 11%
50 uM % Lysed cells (1 h LDH) (SJSA-1 cells): 56%
caspase 0.3 uM (Caspase 3): 1
caspase 3 uM (Caspase 3): 3
caspase 10 uM (Caspase 3): 9
caspase 30 uM (Caspase 3): 16

CC[C@H](C)[C@H](NC(=O)[C@H](C)NC(=O)[C@H](C)NC(=O)[C@]1(C)CCCC=CCCCCCC[C@@](C)(NC(=O)[C@H](Cc2ccccc2)NC(=O)[C@@H](NC(=O)[C@H](CC(C)C)NC(C)=O)[C@@H](C)O)C(=O)N[C@@H](CCC(=O)O)C(=O)N[C@@H](Cc2ccc(O)cc2)C(=O)N[C@@H](Cc2c[nH]c3ccccc23)C(=O)N[C@@H](C)C(=O)N[C@@H](CCC(N)=O)C(=O)N[C@@H](CC2CCC2)C(=O)N1)C(=O)N[C@H](C)C(N)=O [compound 247] (Ac-LTF[R8]EYWAQ[Cba][S5]AAI[dA]-NH2; staple 4-11)
pIC50 (MDMX): 7.00 to 8.00
pKi (MDMX): 7.00 to 8.00
pIC50 (MDM2): 7.00 to 8.00
pKi (MDM2): > 8.00
6.25 uM % Lysed cells (1 h LDH) (SJSA-1 cells): 0%
25 uM % Lysed cells (1 h LDH) (SJSA-1 cells): 0%
50 uM % Lysed cells (1 h LDH) (SJSA-1 cells): 4%
caspase 0.3 uM (Caspase 3): 1
caspase 3 uM (Caspase 3): 3
caspase 10 uM (Caspase 3): 11
caspase 30 uM (Caspase 3): 24

CC[C@H](C)[C@H](NC(=O)[C@H](C)NC(=O)[C@H](C)NC(=O)[C@]1(C)CCC/C=C/CCCCCC[C@@](C)(NC(=O)[C@H](Cc2ccccc2)NC(=O)[C@@H](NC(=O)[C@H](CC(C)C)NC(C)=O)[C@@H](C)O)C(=O)N[C@@H](CCC(=O)O)C(=O)N[C@@H](Cc2ccc(C(=O)O)cc2)C(=O)N[C@@H](Cc2c[nH]c3ccccc23)C(=O)N[C@@H](C)C(=O)N[C@@H](CCC(N)=O)C(=O)N[C@@H](CC2CCC2)C(=O)N1)C(=O)N[C@H](C)C(N)=O [compound 249] (Ac-LTF[R8]E[Phe(4-COOH)]WAQ[Cba][S5]AAI[dA]-NH2; staple (E) 4-11)
pIC50 (MDMX): 7.00 to 8.00
pKi (MDMX): > 8.00
pIC50 (MDM2): 7.00 to 8.00
pKi (MDM2): > 8.00
6.25 uM % Lysed cells (1 h LDH) (SJSA-1 cells): 0%
25 uM % Lysed cells (1 h LDH) (SJSA-1 cells): 0%
50 uM % Lysed cells (1 h LDH) (SJSA-1 cells): 0%
caspase 0.3 uM (Caspase 3): 2
caspase 3 uM (Caspase 3): 5
caspase 10 uM (Caspase 3): 11
caspase 30 uM (Caspase 3): 23

CC(=O)N[C@@H](CC(C)C)C(=O)N[C@H](C(=O)N[C@@H](Cc1ccccc1)C(=O)N[C@]1(C)CCCCCC/C=C/CCC[C@@](C)(C(=O)N[C@@H](C)C(=O)N[C@@H](C)C(=O)N[C@@H](C)C(=O)N[C@@H](C)C(=O)N[C@@H](C)C(=O)N[C@H](C)C(N)=O)NC(=O)[C@H](CC2CCC2)NC(=O)[C@H](CCC(N)=O)NC(=O)[C@H](C)NC(=O)[C@H](Cc2c[nH]c3ccccc23)NC(=O)[C@H](Cc2ccc(C(=O)O)cc2)NC(=O)[C@H](CCC(=O)O)NC1=O)[C@@H](C)O [compound 349] (Ac-LTF[R8]E[Phe(4-COOH)]WAQ[Cba][S5]AAAAA[dA]-NH2; staple (E) 4-11)
pIC50 (MDMX): 7.00 to 8.00
pKi (MDMX): > 8.00
pIC50 (MDM2): > 8.00
pKi (MDM2): > 8.00
6.25 uM % Lysed cells (1 h LDH) (SJSA-1 cells): 0%
25 uM % Lysed cells (1 h LDH) (SJSA-1 cells): 0%
50 uM % Lysed cells (1 h LDH) (SJSA-1 cells): 0%
caspase 0.3 uM (Caspase 3): 1
caspase 1 uM (Caspase 3): 8
caspase 3 uM (Caspase 3): 11
caspase 10 uM (Caspase 3): 16
caspase 30 uM (Caspase 3): 24

CC(=O)N[C@@H](CC(C)C)C(=O)N[C@H](C(=O)N[C@@H](Cc1ccccc1)C(=O)N[C@]1(C)CCCCCC/C=C/CCC[C@@](C)(C(=O)N[C@@H](C)C(=O)N[C@@H](C)C(=O)N[C@@H](C)C(=O)N[C@@H](C)C(=O)N[C@@H](C)C(=O)N[C@H](C)C(N)=O)NC(=O)[C@H](CC2CCC2)NC(=O)[C@H](CCC(N)=O)NC(=O)[C@H](CO)NC(=O)[C@H](Cc2c[nH]c3ccccc23)NC(=O)[C@H](Cc2ccc(O)cc2)NC(=O)[C@H](CCC(=O)O)NC1=O)[C@@H](C)O [compound 351] (Ac-LTF[R8]EYWSQ[Cba][S5]AAAAA[dA]-NH2; staple (E) 4-11)
pIC50 (MDMX): 7.00 to 8.00
pKi (MDMX): > 8.00
pIC50 (MDM2): > 8.00
pKi (MDM2): > 8.00
6.25 uM % Lysed cells (1 h LDH) (SJSA-1 cells): 0%
25 uM % Lysed cells (1 h LDH) (SJSA-1 cells): 0%
50 uM % Lysed cells (1 h LDH) (SJSA-1 cells): 0%
caspase 0.3 uM (Caspase 3): 3
caspase 1 uM (Caspase 3): 9
caspase 3 uM (Caspase 3): 13
caspase 10 uM (Caspase 3): 15
caspase 30 uM (Caspase 3): 24
